Source: patent publication US3971814A, “Benzo(b)thiophene derivatives” (priority 1972, dated 1976)

How the values were obtained:
[1] = test system: Yeast Edema of the Rat Paw; assay: Yeast edema and determination of pain threshold in the rat paw; type: in vivo; conditions: 3 h
Procedure: test animals are male rats (SIV 50) weighing 100 to 180 g. […] 10 animals belonged to each dosage group.
The volume of the paw is determined according to the method described by Enders and Heidbrink, the pain threshold according to that described by Randall and Selitto (Arch. Int. Pharmacodyn CXI: 409, 1957).
Following initial measurements, […] of a 5% suspension of dried yeast is injected subplantarly into the right paw and the test substances are administered immediately. The blank control group is given Tragacanth mucilage only. After 3 hours the pain threshold and the volume of the paw are determined again.
The mean value of the increase in paw volume of the animals of the blank control after 3 hours is rated 100%, and the mean value of the increase in paw volume of the animals of the substance groups expressed as a percentage thereof. Pain threshold after 3 hours reflects the increase or decrease in percent, compared to the initial value.
In order to be able to calculate the ED50 according to the method by Lichtfield and Wilcoxon (J.P.E.T. 96:99, 1949), those animals in a dose group are considered protected when the paw swelling was at least 40% less than that of the blank control.

[2] = test system: Kaolin Edema of the Rat Paw; assay: Kaolin edema of the rat paw; type: in vivo; conditions: for 60 min. (paw edema) / 120 min. (paw edema) / 180 min. (paw edema): ig., section K
Procedure: test animals used are the same as stated under Example B and up to the beginning of the test, the procedure corresponded to that described under this example.
After an initial measurement, a sterile 25% kaolin suspension was injected (0.05 ml/paw) subplantarly. The test substances are administered immediately, and after 60, 120, and 180 minutes the paw volume is again determined.
Evaluation of the tests was performed as stated under Example C, and the results so obtained presented below: […]

in vivo = conditions: mouse
[3] = test system: Carrageenin Edema of the Rat Paw; assay: Carrageenin edema of the rat paw; type: in vivo
Procedure: test animals used are the same as stated under Example B and up to the initial measurement, the procedure corresponded to that described under this example.
After an initial measurement, the test substances are administered and after 60 minutes a 1% Carrageenin suspension is injected subplantarly (0.1 ml/paw). After 60 and 180 minutes the paw volume is again determined. Here, too, the blank control group was treated with the carrier alone.
The increase in the volume of the paw after 60 minutes is considered as the first phase of the biphase edema and that after 180 minutes, as compared to the 60-minute-value, as the second phase. Moreover, the total increase of the paw edema within 180 minutes, as compared to the initial value, is also determined.
Determination of the influence exerted by the substances upon the development of the paw edema and calculation of the ED50 are done as under Example B.

Granulation Tissue = assay: Cotton-pellet test (granulation tissue); type: in vivo; conditions: rat
Procedure: test animals are male rats (SIV 50) weighing 110 to 200 g. All test animals are kept fasting for 16 to 18 hours prior to the implantation of the pellets; after that food and water were available ad libitum. Each dose level of the chemical tested was administered to 12 animals. The substances were suspended in 1% Tragacanth mucilage and administered intragastrically by means of a stomach tube. The substances to be investigated and the control suspensions are administered once on the operating day following operation, and twice a day on the following 6 days (at intervals of 6 to 8 hours). The type of application and volume of liquid corresponded to that under B.
Under light ether anesthesia 4 sterile cotton pellets were implanted under the skin on the back of the animal. The weight of one pellet was 50 mg ± 0.5 mg. After 7 days treatment, the animals were sacrificed, the pellets removed with the granulation tissue, weighed and then dried in the incubator at +80°C to constant weight. The average dry weight of the granulation tissue of the control group was rated 100%, and deviations of the mean weights of the group treated with the test substance determined as a percentage thereof.
The weight of the animals is measured daily throughout the tests, and the percental increase determined. At the end of some tests, moreover, the suprarenal glands are removed and their weight determined.

Granuloma Pouch = assay: Granuloma pouch test; type: in vivo; conditions: rat
Procedure: Under light ether anesthesia 25 ml of air are injected under the shaved skin of the back. 0.5 ml of croton oil/animal (0.05%) are injected into the pouch formed by the air, and evenly distributed over the back by turning the animal.
On the third day croton oil (3%, 0.5 ml/animal) is again injected into this pouch.
The average dry weights of the granuloma pouches and the quantities of secretion of the groups subjected to treatment are then compared with those of the control group and the percental deviations calculated.
At the end of some tests the suprarenal glands are removed and the weight of these organs is also determined.
The weight of the animals is measured daily and the changes determined as a percentage.

male mice (NMRI) = assay: Hot-plate test (analgesia); type: in vivo; conditions: mouse, i.g., up to 400 mg/kg
Procedure: male mice (NMRI) weighing 18 to 28 g are used as test animals. The animals are placed on a copper plate constantly kept at 55°C, and the time is measured until they lick their forepaws.
Following 3 initial measurements, the test substances are administered intragastrically. Afterwards the measurements are repeated over a period of 2 hours at intervals of 30 minutes. Each dose is administered to 10 animals selected from groups of 15 animals following the initial measurements.
The test substances are administered as a suspension in 1% Tragacanth mucilage, the volume of liquid amounting to 2 ml/100 g of body weight.
For the purpose of statistical evaluation according to Litchfield and Wilcoxon, those animals in which the reaction time has been extended by at least 100% are considered protected.

[4] = Summary: calculated ED50 and therapeutic ratio; type: in vivo, rat; conditions: for ED50: Rattus norvegicus
Procedure: From the ED50 and LD50 (A) the following therapeutic ratios for this test are calculated: […]

[5] = test system: Arthritis Induced by the Freund Adjuvant; assay: Adjuvant arthritis; type: in vivo; conditions: rat, i.g., 2 × 60.0 mg/kg
Procedure: test animals used are the same as described under Example E; food and water is given ad libitum.
On the first day of the test a 0.8% suspension of Mycobacterium butyrium in paraffin (0.05 or 0.1 ml/paw) is injected subplantarly into the left hind paw of the animals. […] From the 19th to the 22nd day the animals showing a reaction are treated intragastrically with the test substances. The right paw having been marked above the ankle-joint, the volume is determined daily from the 19th to the 22nd or 23rd day, according to the process described under Example B.
The volume of liquid, as well as of the carrier administered, corresponded to that described in the above tests.

[6] = po, ig., section K, read-out: volume (paw, control = 100%)
[7] = ig., 2×90.0 mg/kg daily, section K

Q: For `COCCOC(=N)c1sc2ccccc2c1O` [Example 10], which change in vivo at 200 mg/kg ([1]; po, ig., section K) is on record?
A: -49%

Q: What about the response vs control in vivo at 200 mg/kg [1, 6] of the same molecule?
A: 73%

Q: What about the change in vivo at 250 mg/kg ([1]; po, ig., 250 mg/kg, section K (control -35)) of the same molecule?
A: -30%

Q: What about the response vs control in vivo at 250 mg/kg ([1]; po, ig., 250 mg/kg, section K, read-out: volume (paw, control = 100%)) of the same molecule?
A: 33%

Q: What about the “60 min. (paw edema)” value ([2]; 200 mg/kg) of the same molecule?
A: 67%

Q: And the “120 min. (paw edema)” value ([2]; 200 mg/kg)?
A: 47%

Q: What about the “180 min. (paw edema)” value ([2]; 200 mg/kg) of the same molecule?
A: 46%

Q: What about the LD50 (in vivo; po) of the same molecule?
A: ~1600 mg/kg

Q: With `CC(=O)Oc1ccccc1C(=O)O` [Acetylsalicylic Acid, acetylsalicylic acid] as the molecule, how does the “Volume (increase in paw volume, blank control = 100%)” value ([1]; i.g., 150.0 mg/kg) read?
A: 134%

Q: And the “Pain Threshold (change vs initial value)” value ([1]; i.g., 300.0 mg/kg)?
A: -15%

Q: And the “Volume (increase in paw volume, blank control = 100%)” value ([1]; i.g., 300.0 mg/kg)?
A: 81%

Q: And the “1st Phase (paw edema)” value ([3]; 100.0 mg/kg)?
A: 83%

Q: What about the “2nd Phase (paw edema)” value ([3]; 100.0 mg/kg) of the same molecule?
A: 114%

Q: And the “3 Hrs. (total paw edema)” value ([3]; 100.0 mg/kg)?
A: 96%

Q: And the “1st Phase (paw edema)” value ([3]; 200.0 mg/kg)?
A: 95%

Q: And the “2nd Phase (paw edema)” value ([3]; 200.0 mg/kg)?
A: 60%

Q: And the “3 Hrs. (total paw edema)” value ([3]; 200.0 mg/kg)?
A: 76%

Q: What about the “60 Minutes (paw edema)” value ([2]; 300.0 mg/kg) of the same molecule?
A: 156%

Q: What about the “120 Minutes (paw edema)” value ([2]; 300.0 mg/kg) of the same molecule?
A: 93%

Q: What about the “180 Minutes (paw edema)” value ([2]; 300.0 mg/kg) of the same molecule?
A: 82%

Q: What about the “60 min. (paw edema)” value ([2]; 300 mg/kg) of the same molecule?
A: 156%

Q: What about the “120 min. (paw edema)” value ([2]; 300 mg/kg) of the same molecule?
A: 93%

Q: And the “180 min. (paw edema)” value ([2]; 300 mg/kg)?
A: 82%

Q: What about the “Granulation Tissue % (Dry Weight)” value (Granulation Tissue; i.g., 2 × 200 mg/kg daily) of the same molecule?
A: 89%

Q: What about the “Increase in Body Weight” value (Granulation Tissue; i.g., 2 × 200 mg/kg daily) of the same molecule?
A: not influenced

Q: What about the “Granuloma Pouch Dry Weight” value (Granuloma Pouch; i.g., 2 × 150 mg/kg daily) of the same molecule?
A: 88%

Q: And the “Increase in Body Weight” value (Granuloma Pouch; i.g., 2 × 150 mg/kg daily)?
A: not influenced

Q: And the Secretion (Granuloma Pouch; i.g., 2 × 150 mg/kg daily)?
A: 121%

Q: What about the “Notes (analgesic activity)” value (male mice (NMRI)) of the same molecule?
A: ineffective

Q: What about the ED50 [4] of the same molecule?
A: 192 mg/kg

Q: And the therapeutic ratio ([4]; from ED50 and LD50 (A))?
A: 10.7

Q: With `CCOCCOC(=N)c1sc2ccccc2c1O` [Example 11] as the molecule, how does the change in vivo at 200 mg/kg ([1]; po, ig., section K) read?
A: 32%

Q: What about the response vs control in vivo at 200 mg/kg [1, 6] of the same molecule?
A: 41%

Q: And the “60 min. (paw edema)” value ([2]; 50 mg/kg)?
A: 40%

Q: And the “120 min. (paw edema)” value ([2]; 50 mg/kg)?
A: 36%

Q: And the “180 min. (paw edema)” value ([2]; 50 mg/kg)?
A: 56%

Q: And the “60 min. (paw edema)” value ([2]; 100 mg/kg)?
A: 22%

Q: What about the “120 min. (paw edema)” value ([2]; 100 mg/kg) of the same molecule?
A: 27%

Q: What about the “180 min. (paw edema)” value ([2]; 100 mg/kg) of the same molecule?
A: 46%

Q: And the LD50 (in vivo; po)?
A: > 1600 mg/kg

Q: For `CCCCC1C(=O)N(c2ccccc2)N(c2ccccc2)C1=O` [Phenylbutazone, 4-n-Butyl-1,2-diphenyl-3,5-dioxo-pyrazolidine], which “Volume (increase in paw volume, blank control = 100%)” value ([1]; i.g., 150.0 mg/kg) is on record?
A: 74%

Q: What about the “Volume (increase in paw volume, blank control = 100%)” value ([1]; i.g., 300.0 mg/kg) of the same molecule?
A: 67%

Q: What about the “1st Phase (paw edema)” value ([3]; 60.0 mg/kg) of the same molecule?
A: 114%

Q: And the “2nd Phase (paw edema)” value ([3]; 60.0 mg/kg)?
A: 52%

Q: What about the “3 Hrs. (total paw edema)” value ([3]; 60.0 mg/kg) of the same molecule?
A: 77%

Q: And the “1st Phase (paw edema)” value ([3]; 150.0 mg/kg)?
A: 81%

Q: And the “2nd Phase (paw edema)” value ([3]; 150.0 mg/kg)?
A: 15%

Q: What about the “3 Hrs. (total paw edema)” value ([3]; 150.0 mg/kg) of the same molecule?
A: 38%

Q: And the “60 Minutes (paw edema)” value ([2]; 90.0 mg/kg)?
A: 107%

Q: And the “120 Minutes (paw edema)” value ([2]; 90.0 mg/kg)?
A: 100%

Q: What about the “180 Minutes (paw edema)” value ([2]; 90.0 mg/kg) of the same molecule?
A: 81%

Q: And the “Granulation Tissue % (Dry Weight)” value (Granulation Tissue; i.g., 2 × 90 mg/kg daily)?
A: 78%

Q: And the “Increase in Body Weight” value (Granulation Tissue; in vivo, 90 mg/kg)?
A: not influenced

Q: And the “Granuloma Pouch Dry Weight” value (Granuloma Pouch; i.g., 2 × 90 mg/kg daily)?
A: 84%

Q: And the Secretion (Granuloma Pouch; i.g., 2 × 90 mg/kg daily)?
A: 96%

Q: What about the “granuloma pouch dry weight %” value (Granuloma Pouch; [7]) of the same molecule?
A: 84%

Q: And the secretion % (Granuloma Pouch; [7])?
A: 96%

Q: And the “Increase in Body Weight” value (Granuloma Pouch; in vivo, 90 mg/kg)?
A: not influenced

Q: What about the “increase in body weight %” value (Granuloma Pouch; in vivo, 90 mg/kg) of the same molecule?
A: 57%

Q: What about the Swelling [5] of the same molecule?
A: 84%

Q: What about the ED50 [4] of the same molecule?
A: 20.1 mg/kg

Q: Which response vs control in vivo at 200 mg/kg [1, 6] does the source give for `CN(C)CCNC(=N)c1sc2ccccc2c1O` [Example 31] here?
A: 75%

Q: What about the LD50 (in vivo; po) of the same molecule?
A: > 1600 mg/kg

Q: And the LD50 (in vivo; sc)?
A: > 800 mg/kg
